Laboratory results from patent publication US20080230094A1, “METHOD TO INHIBIT GROWTH OF MICROORGANISMS IN AQUEOUS SYSTEMS AND ON SUBSTRATES USING PERSULFATE AND A BROMIDE” (Buckman Laboratories International, Inc., priority 2007, published 2008).

System: Pseudomonas aeruginosa
Assay: Biocidal efficacy in pulp slurry inoculated with Pseudomonas aeruginosa (plate count, log reduction)
Type: cell-based
Settings: 1000 ppm as pure compound in pulp slurry; 24 hr incubation
Protocol: A concentrated solution of active biocidal composition was prepared by mixing 44% (w/v) of aqueous ammonium persulfate with 40% (w/v) aqueous sodium bromide in equal volume. The final mixture contains 22% ammonium persulfate and 20% NaBr at pH 2.2. […] Four hours after mixing, the concentrated solution was diluted with water to contain 5% ammonium persulfate. This diluted solution (5%) was then added to 50 ml pulp slurry to give a biocidal concentration of 10 ppm (as ammonium persulfate) in pulp slurry. The pulp slurry was then inoculated with 3×10^6 cells/ml of Pseudomonas aeruginosa, incubated at room temperature for 24 hr, plated in nutrient agar. The colony forming units per milliliter (cfu/ml) was counted and compared with each individual component acting alone.
The pulp slurry contains white bleached dry pulp at 5 g/L; cationic starch at 10 bl/ton dry pulp; CaCO3 at 300 bl/ton dry pulp; ASA size at 3-4 lb/ton dry pulp; retention aids at 0.5-1.0 bl/ton dry pulp; defoamer at 250 g/ton dry pulp. The pulp slurry has a consistency of about 0.5 to 0.7%. The final pH of the pulp substrate after autoclave is about 8.0.

## [Br-].[Na+] [NaBr, sodium bromide]
  CFU/ml: 4.2 × 10^6 CFU/ml
  Log Reduction: 0.00
